Laboratory results published in patent US20130204033A1, “ANTIPROLIFERATIVE COMPOUNDS, CONJUGATES THEREOF, METHODS THEREFOR, AND USES THEREOF” (Medarex, Inc., priority 2009, published 2013).
Read-outs that look alike come from different tables or passages of the source.

Legend:
Assay type in all cases: cell-based, human
[1] = system: HCT-15; assay: 3H thymidine proliferation assay, HCT-15
Method: (§1) This example generally describes the procedures used to assay the antiproliferative activity of compounds of this invention or their conjugates. Human tumor cell lines were obtained from the American Type Culture Collection (ATCC), P.O. Box 1549, Manassas, Va. 20108, USA, and cultured according to instruction from the ATCC. Cells were seeded at 1.0×10^3 or 1.0×10^4 cells/well in 96-well plates for 3 h for ATP assays or ^3H thymidine assays, respectively. 1:3 serial dilutions of free (unconjugated) compounds or their conjugates were added to the wells. Plates were allowed to incubate for 24 to 72 h. The ^3H thymidine plates were pulsed with 1.0 μCi of ^3H-thymidine per well for the last 24 hours of the total incubation period, harvested, and read on a Top Count Scintillation Counter (Packard Instruments, Meriden, Conn.). ATP levels in the ATP plates were measured using the […]-GLO® Luminescent Cell Viability kit following the manufacturer's manual and read on a GLOMAX® 20/20 luminometer (both from Promega, Madison, Wis., USA). The EC50 values—the concentration at which an agent inhibits or reduces cell proliferation by 50% —were determined using PRISM™ software, version 4.0 (GraphPad Software, La Jolla, Calif., USA).
(§2) Using the ^3H thymidine or the ATP luminescence assay, or both, the activities of compounds of this invention were assayed against the following cancer cell lines: HCT-15 (colorectal cancer, multi-drug resistant (MDR)); Hep3B (liver cancer); LNCaP (prostate cancer, androgen receptor positive (AR^+)); MDA-MB-231 (breast cancer, estrogen receptor, progesterone receptor, and Her2 negative (triple negative)); A2058 (melanoma); U-87 MG (glioblastoma); NCI-H460 (NSCLC); A549 (NSCLC); HPAC (pancreatic cancer, primary); PC3 (prostate cancer, AR); BT474 (breast cancer, Her2 highly positive (Her2hi)); SKOV3 (ovarian cancer, Her2hi); 786-O (renal cancer); UO-31 (renal cancer, MDR); NCI-H740 (SCLC); DMS53 (SCLC); SK-BR3 (breast cancer, Her2hi); ZR-75 (breast cancer, estrogen receptor positive); OVCAR3 (ovarian cancer); HL-60 (APL); OVCAR8/Adr (ovarian cancer, MDR); CEM-Cl (ALL); Nomo-1 (AML); RPMI-8226 (MM)); Raji (lymphoma); SW-480 (colorectal cancer, metastatic); SW-620 (colorectal cancer); and H226 (lung cancer). (Not all compounds were assayed against all cell lines.)
(§3) Table 2 provides the data for proliferation assays using the ^3H thymidine method, with an incubation period of 72 h.

[2] = system: Hep3B; assay: 3H thymidine proliferation assay, Hep3B
Method: as §1, §2, §3

[3] = system: LNCaP; assay: 3H thymidine proliferation assay, LNCaP
Method: as §1, §2, §3

[4] = system: MDA-MB-231; assay: 3H thymidine proliferation assay, MDA-MB-231
Method: as §1, §2, §3

[5] = system: A2058; assay: 3H thymidine proliferation assay, A2058; settings: 3H thymidine method, 72 h incubation
Method: as §1, §2, §3

[6] = system: HPAC; assay: 3H thymidine proliferation assay, HPAC
Method: as §1, §2, §3

[7] = system: UO-31; assay: 3H thymidine proliferation assay, UO-31
Method: as §1, §2, §3

[8] = system: SK-BR3; assay: 3H thymidine proliferation assay, SK-BR3; settings: 3H thymidine method, 72 h incubation
Method: as §1, §2, §3

[9] = system: OVCAR8; assay: 3H thymidine proliferation assay, OVCAR8
Method: as §1, §2, §3

[10] = system: CEM-C1; assay: 3H thymidine proliferation assay, CEM-C1
Method: as §1, §2, §3

[11] = system: MDA-MB-231; assay: ATP luminescence proliferation assay, MDA-MB-231
Method: as §1, §2
(§4) Table 3 provides the data for the ATP luminescence proliferation assays, with an incubation period of 48, 72, or 96 h, as noted.

[12] = system: A2058; assay: ATP luminescence proliferation assay, A2058
Method: as §1, §2, §4

[13] = system: NCI-H460; assay: ATP luminescence proliferation assay, NCI-H460
Method: as §1, §2, §4

[14] = system: PC3; assay: ATP luminescence proliferation assay, PC3
Method: as §1, §2, §4

[15] = system: OVCAR3; assay: ATP luminescence proliferation assay, OVCAR3
Summary of the method: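 Cells were seeded at 1.0×10^3 cells/well for 3 h, then given 1:3 serial dilutions of free compound or conjugate and incubated 48, 72 or 96 h. Cellular ATP was read by luminescent viability kit, and EC50 was the concentration reducing proliferation by 50%.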

[16] = system: HL-60; assay: ATP luminescence proliferation assay, HL-60
Summary of the method: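 Cells seeded at 1.0×10^3 cells/well for 3 h, then exposed to 1:3 serial dilutions of free compounds or conjugates for 48, 72 or 96 h, as noted. ATP measured by luminescent cell viability kit; EC50 taken as concentration reducing proliferation by 50%.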

[17] = system: Raji; assay: ATP luminescence proliferation assay, Raji
Method: as §1, §2, §4

[18] = system: SW-480; assay: ATP luminescence proliferation assay, SW-480
Method: as §1, §2, §4

[19] = Homo sapiens, HCT-15, read-out: EC50, HCT-15, 3H thymidine method, 72 h incubation
[20] = Homo sapiens, Hep3B, read-out: EC50, Hep3B, 3H thymidine method, 72 h incubation
[21] = Homo sapiens, LNCaP, read-out: EC50, LNCaP, 3H thymidine method, 72 h incubation
[22] = Homo sapiens, MDA-MB-231, read-out: EC50, MDA-MB-231, 3H thymidine method, 72 h incubation
[23] = Homo sapiens, HPAC, read-out: EC50, HPAC, 3H thymidine method, 72 h incubation
[24] = Homo sapiens, UO-31, read-out: EC50, UO-31, 3H thymidine method, 72 h incubation
[25] = Homo sapiens, OVCAR-8, read-out: EC50, OVCAR8, 3H thymidine method, 72 h incubation
[26] = Homo sapiens, CEM/C1, read-out: EC50, CEM-C1, 3H thymidine method, 72 h incubation
[27] = Homo sapiens, MDA-MB-231, 72 h, read-out: EC50 MDA-MB-231 (72 h), ATP luminescence, MDA-MB-231, 72 h incubation
[28] = Homo sapiens, A2058, 72 h, read-out: EC50 A2058 (72 h), ATP luminescence, A2058, 72 h incubation
[29] = Homo sapiens, NCI-H460, 72 h, read-out: EC50 NCI-H460 (72 h), ATP luminescence, NCI-H460, 72 h incubation
[30] = Homo sapiens, PC-3, 48 h, read-out: EC50 PC3 (48 h), ATP luminescence, PC3, 48 h incubation
[31] = Homo sapiens, OVCAR-3, 48 h, read-out: EC50 OVCAR3 (48 h), ATP luminescence, OVCAR3, 48 h incubation
[32] = Homo sapiens, 72 h, read-out: EC50 Raji (72 h), ATP luminescence, Raji, 72 h incubation
[33] = Homo sapiens, SW480, 96 h, read-out: EC50 SW480 (96 h), ATP luminescence, SW480, 96 h incubation
[34] = 3H thymidine method, 72 h incubation, read-out: EC50, HCT-15
[35] = 3H thymidine method, 72 h incubation, read-out: EC50, Hep3B
[36] = 3H thymidine method, 72 h incubation, read-out: EC50, LNCaP
[37] = 3H thymidine method, 72 h incubation, read-out: EC50, MDA-MB-231
[38] = 3H thymidine method, 72 h incubation, read-out: EC50, HPAC
[39] = 3H thymidine method, 72 h incubation, read-out: EC50, UO-31
[40] = 3H thymidine method, 72 h incubation, read-out: EC50, OVCAR8
[41] = 3H thymidine method, 72 h incubation, read-out: EC50, CEM-C1
[42] = ATP luminescence, MDA-MB-231, 48 h incubation, read-out: EC50 MDA-MB-231 (48 h)
[43] = ATP luminescence, A2058, 48 h incubation, read-out: EC50 A2058 (48 h)
[44] = ATP luminescence, NCI-H460, 72 h incubation, read-out: EC50 NCI-H460 (72 h)
[45] = ATP luminescence, PC3, 48 h incubation, read-out: EC50 PC3 (48 h)
[46] = ATP luminescence, HL-60, 72 h incubation, read-out: EC50 HL-60 (72 h)
[47] = ATP luminescence, 72 h incubation, read-out: EC50 Raji (72 h)
[48] = ATP luminescence, SW480, 96 h incubation, read-out: EC50 SW480 (96 h)
[49] = ATP luminescence, NCI-H460, 48 h incubation, read-out: EC50 NCI-H460 (48 h)
[50] = ATP luminescence, OVCAR3, 48 h incubation, read-out: EC50 OVCAR3 (48 h)

Compound	EC50 [1, 19]	EC50 [2, 20]	EC50 [3, 21]	EC50 [1, 34]	EC50 [2, 35]	EC50 [3, 36]	EC50 [4, 37]	EC50 [5]	EC50 [6, 38]	EC50 [7, 39]	EC50 [8]	EC50 [9, 40]	EC50 [10, 41]	EC50 [11, 42]	EC50 [12, 43]	EC50 [14, 45]	EC50 [16, 46]	EC50 [17, 47]	EC50 [18, 48]	EC50 [15, 50]	other results
CC[C@H](C)[C@H](NC(=O)[C@H]1CCCCN1C)C(=O)N(C)[C@H](C[C@@H](OC)c1nc(C(=O)N[C@@H](Cc2ccccc2)C(=O)N[C@@H](C)C(=O)OC)cs1)C(C)C [Compound 24]	704 nM	32 nM	76 nM	–	–	–	–	–	–	–	–	–	–	–	–	–	–	–	–	–	EC50 [4, 22]: 33 nM; EC50 ([5]; Homo sapiens, A2058): 0.12 nM; EC50 [6, 23]: > 100 nM; EC50 [7, 24]: > 100 nM; EC50 ([8]; Homo sapiens, SK-BR-3): > 100 nM; EC50 [9, 25]: > 100 nM; EC50 [10, 26]: 13 nM; EC50 [11, 27]: 13 nM; EC50 [12, 28]: 14 nM; EC50 [13, 29]: 23 nM; EC50 [14, 30]: 13 nM; EC50 [15, 31]: 29 nM; EC50 ([16]; Homo sapiens, HL-60, 72 h, read-out: EC50 HL-60 (72 h), ATP luminescence, HL-60, 72 h incubation): 6.4 nM; EC50 [17, 32]: 7.9 nM; EC50 [18, 33]: 42 nM
CC[C@H](C)[C@H](NC(=O)[C@H]1CCCCN1C)C(=O)N(COC)[C@H](C[C@@H](OC)c1nc(C(=O)N[C@@H](Cc2ccccc2)C(=O)OC)cs1)C(C)C [Compound 29c]	–	–	–	2.4 nM	3 nM	5.2 nM	4.8 nM	5.6 nM	32 nM	1 nM	72 nM	1.4 nM	45 nM	52 nM	32 nM	66 nM	8.6 nM	36 nM	41 nM	–	EC50 [13, 44]: 6 nM; EC50 ([15]; ATP luminescence, OVCAR3, 72 h incubation, read-out: EC50 OVCAR3 (72 h)): 99 nM
CC[C@H](C)[C@H](NC(=O)[C@H]1CCCCN1C)C(=O)N(C)[C@H](C[C@@H](OC(C)=O)c1nc(C(=O)N[C@@H](Cc2ccc(N)cc2)C(=O)O)cs1)C(C)C [Compound 56]	–	–	–	2480 nM	> 100 nM	> 100 nM	> 100 nM	> 100 nM	> 100 nM	> 100 nM	> 100 nM	> 3000 nM	> 100 nM	> 100 nM	> 100 nM	> 100 nM	> 100 nM	24 nM	> 100 nM	> 100 nM	EC50 [13, 49]: > 100 nM
CC[C@H](C)[C@H](NC(=O)[C@H]1CCCCN1C)C(=O)N(C)[C@H](C[C@@H](OC)c1nc(C(=O)N[C@@H](Cc2ccccc2)C(=O)OC)cs1)C(C)C [Compound 16]	–	–	–	284 nM	> 100 nM	> 100 nM	> 100 nM	> 100 nM	> 100 nM	> 100 nM	> 100 nM	1870 nM	11 nM	28 nM	30 nM	> 100 nM	2.8 nM	3 nM	48 nM	> 100 nM	EC50 [13, 49]: 69 nM
CC[C@H](C)[C@H](NC(=O)[C@H]1CCCCN1C)C(=O)N(COC(=O)CC(C)C)[C@H](C[C@@H](O)c1nc(C(=O)N[C@@H](Cc2ccccc2)C(=O)OC)cs1)C(C)C [Compound 28]	–	–	–	223 nM	24 nM	64 nM	> 100 nM	0.96 nM	34 nM	> 100 nM	> 100 nM	27 nM	10 nM	–	–	5.8 nM	2.9 nM	15 nM	36 nM	14 nM	EC50 ([11]; ATP luminescence, MDA-MB-231, 72 h incubation, read-out: EC50 MDA-MB-231 (72 h)): 16 nM; EC50 ([12]; ATP luminescence, A2058, 72 h incubation, read-out: EC50 A2058 (72 h)): 20 nM; EC50 [13, 44]: 35 nM
CC[C@H](C)[C@H](NC(=O)[C@H]1CCCCN1C)C(=O)N(C)[C@H](C[C@@H](OC)c1nc(C(=O)N[C@H](CC(=O)OC)Cc2ccccc2)cs1)C(C)C [Compound 25]	280 nM	305 nM	930 nM	–	–	–	–	–	–	–	–	–	–	–	–	–	–	–	–	–	EC50 [4, 22]: 236 nM; EC50 ([5]; Homo sapiens, A2058): 409 nM; EC50 [6, 23]: 206 nM; EC50 [7, 24]: 435 nM; EC50 ([8]; Homo sapiens, SK-BR-3): 1710 nM; EC50 [9, 25]: 946 nM; EC50 [10, 26]: 225 nM; EC50 [11, 27]: 202 nM; EC50 [12, 28]: 212 nM; EC50 [13, 29]: 177 nM; EC50 [14, 30]: 155 nM; EC50 [15, 31]: > 3000 nM; EC50 ([16]; Homo sapiens, HL-60, 48 h, read-out: EC50 HL-60 (48 h), ATP luminescence, HL-60, 48 h incubation): 224 nM; EC50 [17, 32]: 209 nM; EC50 [18, 33]: 261 nM
